The conditions of data set [1]: cited from earlier work.
For data set [2], the target named is human plasma proteins (Homo sapiens, UniProt P02768). The conditions noted are these: serum albumin; cited from earlier work.
Data set [3] deals with human plasma proteins. The conditions noted are these: cited from earlier work.
For data set [4] the following is noted: topical, psoriasis; cited from earlier work.
The conditions of data set [5]: cited from earlier work. This is another data set of the same source.
For data set [6] the following is noted: subconjunctival, 5 subjects; cited from earlier work.
The subject of data set [7] is angiogenesis pathways. The conditions noted are these: topical 1%; cited from earlier work.
For data set [8] the following is noted: in vivo; cited from earlier work.
For data set [9] the following is noted: in vivo; cited from earlier work. The source holds these as a separate data set.
Data set [10] can be described thus: in vitro. The conditions noted are these: PAMPA, pH 7. In general terms: PAMPA measures passive passage across an artificial lipid membrane.
Procedure: The receiver compartment was phosphate buffered saline (pH 7.0) supplemented with 1% sodium dodecyl sulfate. The assay was performed at room temperature; incubation time was 1-24 hours. The concentration in the receiver compartment was determined by UV-VIS spectrophotometry (Thermo Scientific Genesys S10).
Data set [11] deals with CYP3A4 (Homo sapiens, UniProt P08684). The settings on record: cited from earlier work.
Data set [12] concerns the target P-gp (Homo sapiens, UniProt P08183). The conditions noted are these: cited from earlier work.
[13] abbreviates: single dose [14C] Sirolimus oral solution, healthy volunteers.

human plasma proteins (Homo sapiens, UniProt P02768), sequence (P02768 25-609): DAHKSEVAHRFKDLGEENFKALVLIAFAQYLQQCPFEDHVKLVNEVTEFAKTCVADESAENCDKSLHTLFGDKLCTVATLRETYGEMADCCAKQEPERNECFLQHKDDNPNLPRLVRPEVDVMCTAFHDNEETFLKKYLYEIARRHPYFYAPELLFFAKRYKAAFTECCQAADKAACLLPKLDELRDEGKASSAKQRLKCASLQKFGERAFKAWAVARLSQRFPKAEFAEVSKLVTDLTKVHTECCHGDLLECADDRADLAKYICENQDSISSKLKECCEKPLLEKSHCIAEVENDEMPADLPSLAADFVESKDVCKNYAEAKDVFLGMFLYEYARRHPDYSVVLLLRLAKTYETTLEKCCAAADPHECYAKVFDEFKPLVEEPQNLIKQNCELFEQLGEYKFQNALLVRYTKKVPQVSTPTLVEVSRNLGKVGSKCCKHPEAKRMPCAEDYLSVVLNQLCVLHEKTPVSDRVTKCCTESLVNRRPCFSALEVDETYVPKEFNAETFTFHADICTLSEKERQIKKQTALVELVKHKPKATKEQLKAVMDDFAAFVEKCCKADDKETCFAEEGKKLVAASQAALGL
P-gp, sequence (P08183 whole entry): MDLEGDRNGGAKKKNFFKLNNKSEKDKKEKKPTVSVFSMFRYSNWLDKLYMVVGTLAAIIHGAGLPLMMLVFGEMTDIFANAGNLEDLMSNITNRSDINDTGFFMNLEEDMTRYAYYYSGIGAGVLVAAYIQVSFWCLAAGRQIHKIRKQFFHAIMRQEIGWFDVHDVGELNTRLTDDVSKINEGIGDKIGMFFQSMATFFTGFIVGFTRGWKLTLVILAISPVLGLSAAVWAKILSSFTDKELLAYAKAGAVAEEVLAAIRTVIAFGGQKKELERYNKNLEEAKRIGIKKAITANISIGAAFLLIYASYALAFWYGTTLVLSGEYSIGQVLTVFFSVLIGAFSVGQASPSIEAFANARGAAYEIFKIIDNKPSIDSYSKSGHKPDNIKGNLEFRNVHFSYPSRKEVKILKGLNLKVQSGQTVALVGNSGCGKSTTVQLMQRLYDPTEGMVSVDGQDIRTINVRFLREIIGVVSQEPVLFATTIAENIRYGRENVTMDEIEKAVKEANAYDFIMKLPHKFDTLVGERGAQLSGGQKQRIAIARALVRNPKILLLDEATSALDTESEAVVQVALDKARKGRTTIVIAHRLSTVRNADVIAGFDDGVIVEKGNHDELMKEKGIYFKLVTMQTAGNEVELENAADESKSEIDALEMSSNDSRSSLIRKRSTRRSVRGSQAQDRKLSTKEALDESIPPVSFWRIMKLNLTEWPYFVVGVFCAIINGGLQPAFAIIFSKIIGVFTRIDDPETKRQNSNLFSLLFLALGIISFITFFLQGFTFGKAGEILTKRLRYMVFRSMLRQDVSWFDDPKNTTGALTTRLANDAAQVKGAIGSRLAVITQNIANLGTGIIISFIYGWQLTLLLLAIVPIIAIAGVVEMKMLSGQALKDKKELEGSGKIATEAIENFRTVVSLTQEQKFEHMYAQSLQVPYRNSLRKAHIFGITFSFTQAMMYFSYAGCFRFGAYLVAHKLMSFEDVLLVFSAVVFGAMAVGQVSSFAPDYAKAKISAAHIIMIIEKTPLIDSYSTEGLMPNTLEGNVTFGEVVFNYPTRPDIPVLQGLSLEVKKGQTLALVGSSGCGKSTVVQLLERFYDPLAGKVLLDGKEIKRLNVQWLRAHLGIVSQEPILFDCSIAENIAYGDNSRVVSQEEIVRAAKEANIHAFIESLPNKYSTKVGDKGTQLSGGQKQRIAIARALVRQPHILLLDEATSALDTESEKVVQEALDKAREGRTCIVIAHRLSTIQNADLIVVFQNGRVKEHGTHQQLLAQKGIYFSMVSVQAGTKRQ
CYP3A4, sequence (P08684 whole entry): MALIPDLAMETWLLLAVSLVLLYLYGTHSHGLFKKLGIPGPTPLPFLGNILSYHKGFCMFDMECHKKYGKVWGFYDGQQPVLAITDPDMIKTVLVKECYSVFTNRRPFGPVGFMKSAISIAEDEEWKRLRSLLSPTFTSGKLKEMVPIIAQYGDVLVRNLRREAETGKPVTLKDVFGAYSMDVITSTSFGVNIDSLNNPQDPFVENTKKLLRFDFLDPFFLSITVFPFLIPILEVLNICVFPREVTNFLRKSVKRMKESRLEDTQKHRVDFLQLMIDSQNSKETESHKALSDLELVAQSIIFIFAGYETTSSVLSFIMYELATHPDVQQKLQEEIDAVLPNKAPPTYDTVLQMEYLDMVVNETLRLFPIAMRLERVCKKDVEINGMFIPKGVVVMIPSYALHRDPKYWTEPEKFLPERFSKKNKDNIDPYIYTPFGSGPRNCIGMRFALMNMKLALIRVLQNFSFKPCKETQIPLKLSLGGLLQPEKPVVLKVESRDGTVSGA

As usually defined, the Papp is a coefficient for how fast a substance crosses the barrier. Low readings indicate slow passage, high ones fast passage. Consider `CO[C@H]1C[C@@H]2CC[C@@H](C)[C@@](O)(O2)C(=O)C(=O)N2CCCC[C@H]2C(=O)O[C@H]([C@H](C)C[C@@H]2CC[C@@H](O)[C@H](OC)C2)CC(=O)[C@H](C)/C=C(\C)[C@@H](O)[C@@H](OC)C(=O)[C@H](C)C[C@H](C)/C=C/C=C/C=C/1C` [Sirolimus, (3 S,6R,7E,9R,10R, 12R, 14S, 15E, 17E, 19E,21 S,23 S,26R,27R,34aS)9,10,12,13,14,21,22,23,24, 25,26,27,32,33,34, 34a-hexadecahydro-9,27-dihydroxy-3-[(1R)-2[(1 S,3R,4R)-4-hydroxy-3-methoxycyclohexyl]-1-methylethyl]-10,21-dimethoxy6,8,12,14,20,26-hexamethyl-23,27-epoxy-3H-pyrido[2,1-c][1,4]oxaazacyclohentriacontine1,5,11,28,29 (4H,6H,31H)-pentone], for which, in data set [1] (healthy subjects, high-fat meal (861.8 kcal, 54.9% kcal from fat)), the “increase of mean total exposure (AUC) by high-fat meal compared with fasting” value is reported as 23 to 35%. In data set [1] (multiple dosing, stable renal transplant patients), the “mean±SD terminal elimination half-life (t1/2)” value is listed as “about 62±16 hours”. In addition, the “contribution to immunosuppressive activity in human whole blood” value in data set [1] (parent vs metabolites, human whole blood) is on record as “more than 90%”. In [1] (setting [13]), the “radioactivity excreted in urine” value was 2.2% and the “radioactivity recovered from the feces” value is given as 91%. Moreover, the “bound mainly to serum albumin” value in data set [2] is 97%. For the same molecule, the “bound to human plasma proteins” value in [3] is on record as “approximately 92%”. Also, in [4], the clinical score result was “significant reduction”; the “plaque thickness and erythema” value is given as “did not show significant improvement”. Further, in [5] (detection >1.0 ng/mL), the “systemic absorption after topical application” value was “No detectable systemic absorption”. Moreover, in data set [5] (topical), the “effect on facial angiofibromas” value is “causes regression”. Moreover, the tolerability entry in data set [6] is given as “well tolerated”. The “angiogenesis pathways; regeneration and revascularization of photocoagulated blood vessels” value in data set [7] was “can suppress”. The allograft survival entry in data set [8] is reported as “prolongs”. Further, the “immune-mediated events in autoimmune disease models” value in data set [9] is on record as “suppresses”. Further, the Papp in [10] is less than 1 ×10⁻⁶ cm/s. Moreover, the “substrate for CYP3A4” value in data set [11] is recorded as “substrate”. Also, the “substrate for P-gp” value in data set [12] is “substrate”.

The values above are taken from patent publication US20170165237A1 (DRUGGABILITY TECHNOLOGIES IP HOLDCO LIMITED, priority 2014, published 2017).
